Test results as given in article PMC5107945, “Abscinazole-E3M, a practical inhibitor of abscisic acid 8′-hydroxylase for improving drought tolerance” (Scientific Reports, 2016).

What was measured:
[1] = tested on: Arabidopsis seed germination; assay: Arabidopsis seed germination assay; type: in vivo, Arabidopsis (Columbia accession)
Procedure: Figure 3 Effects of (−)-Abz-T compounds on Arabidopsis seed germination compared with that of (−)-Abz-E2B. Seed germination rates in the presence of 0.1 μM ABA and the indicated concentrations of azole inhibitors at a time when the germination rate of plants treated only with ABA was 80% (n = 3; error bars represent s.d.). Compound 6 is also referred to as Abz-E3M.
For the Arabidopsis seed germination assay, 25 to 40 seeds (Columbia accession) were sterilised successively by soaking in 70% EtOH for 30 min and reagent-grade EtOH for 1 min. They were then soaked in distilled water and incubated in the darkness at 5 °C for 3 d. The stratified seeds were then soaked in 100 μL of a test medium liquid agar in 96-well plates and allowed to germinate under continuous illumination at 22 or 30 °C. In these assays, we used the classic definition of radical emergence for seed germination. All of the assays were conducted at least three times.

rice seedling growth = assay: Rice seedling elongation assay; type: in vivo, Oryza sativa L. cv. Nipponbare; settings: Fig. S5
Procedure: The effects of (−)-Abz-T compounds were also tested on the early growth of rice seedlings to investigate whether the plant growth-retardant effect derived from UNI declined. […] This was the same trend observed for (−)-Abz-E2B[26]. […] Thus, the growth-retardant effects of (−)-Abz-T compounds may arise from an increase in the endogenous ABA level due to the CYP707A inhibition, although we cannot exclude the possibility that Abz-T compounds may inhibit off-target enzymes other than CYP707A and CYP701A.
Figure 4 Effects of (−)-Abz-T compounds on rice seedling growth compared with the effects of UNI and (−)-Abz-E2B. Seedlings grown on test media containing indicated concentrations of azole inhibitors for 7 d. Scale bars represent 10 mm. Compound 6 is also referred to as Abz-E3M.
For the rice seedling elongation assay, seven seeds (Oryza sativa L. cv. Nipponbare) were sterilised with reagent-grade EtOH for 5 min and washed with running tap water. They were then soaked in distilled water and incubated under continuous illumination at 25 °C for 3 d to germinate. The germinated seeds were then soaked in 2 mL of a test medium in a glass tube and grown under continuous illumination at 25 °C. When the seedlings were 7 d old, the length of the second leaf sheath was measured. All of the assays were conducted at least three times.

[2] = tested on: MAPKKK18 promoter GUS reporter; assay: ABA-responsive MAPKKK18::GUS reporter analysis; type: in vivo, Arabidopsis; settings: co-treatment with ABA; 5 or 25 μM, 6 h; Fig. S6
Procedure: MAPKKK18::GUS reporter-containing transgenic Arabidopsis[32] were grown for 6 d on agar plates containing 1/2 MS and 0.5% sucrose. Seedlings were incubated in 1/2 MS solutions containing 0.5% sucrose with chemicals for 6 h. GUS activities were detected using a reaction buffer containing 50 mM sodium phosphate buffer, 2.5 mM potassium ferrocyanide, 2.5 mM potassium ferricyanide and 1 mM X-gluc. The GUS enzyme reaction was performed at 30 °C for ~12 h. The reaction was stopped by adding 70% EtOH. Tissue-specific GUS staining was observed by microscope after bleaching the chlorophyll pigment.
Supplementary Figure 6. (−)-Abz-E3M enhanced the ABA-inducible MAPKKK18 expression level. Six-day-old seedlings of MAPKKK18::GUS reporter-containing transgenic plants were incubated in solutions containing either 5 or 25 µM of (−)-Abz-E3M

[3] = tested on: ABA-responsive genes ZmLEA, Zm.12309.1.S and ZmCOR410; assay: qRT-PCR of ABA-responsive genes in maize; type: in vivo, Maize (cv. Gold rush); settings: maize 2-week-old seedlings, roots dipped in 100 μM overnight, aerial shoot tissues
Procedure: The effects of (-)-Abz-[…] were also determined relative to stomatal apertures. Arabidopsis grown in soil pots underwent moderate drought stress under the optimal growth conditions of 22 °C and 60% relative humidity. Under these growth conditions, the leaf surface temperature of the mock-treated controls was 19.5 °C, which was lower than the surrounding atmospheric temperature because of transpirational water loss (Fig. 6a,b)[30]. […] Finally, we examined the effects of (-)-Abz-[…] on drought tolerance under more practical conditions. Three-week-old Arabidopsis were sprayed with an aqueous solution containing 50 μM (-)-Abz-[…]. Water was not supplied for 12 days, and then the plants were rehydrated. […] We also tested the effects of (-)-Abz-[…] on a monocot crop, maize, to evaluate whether (-)-Abz-[…] affected stomatal movement and enhanced ABA response across plant species. […] Thus, the effects of (-)-Abz-[…] were not restricted to the model plant Arabidopsis. Figure 7 Effects of (-)-Abz-[…] on maize. (a) Thermal images of the leaf surface temperatures of (-)-Abz-[…]-treated maize plants. (b) Leaf surface temperatures of (-)-Abz-[…]-treated maize plants. The stomatal conductance (c) and transpiration rate (d) in (-)-Abz-[…]-treated maize at different light intensities. […] Values are means with s.d. (n = 4 for leaf surface temperature, n = 3 for stomatal conductance and transpiration rate). […]

ABA catabolism = settings: in vivo
Procedure: For ABA measurements from Arabidopsis seedlings, samples (1–20 mg dry weight) were ground with beads in 2-mL tubes and homogenised in 1 mL 80% (v/v) MeCN containing 1% AcOH (v/v) with d6-ABA. After extracting for 16 h at 4 °C, samples were centrifuged at 4 °C for 10 min at 3,000× g, and supernatants were collected. Samples were re-extracted twice with 1 mL 80% MeCN at 4 °C for 30 min, and the supernatants were collected after centrifugation. MeCN was removed with nitrogen gas, and the acidified water extracts were loaded into 1cc Oasis HLB cartridges. After washing with water containing 1% AcOH, plant ABA was eluted with 80% MeCN containing 1% AcOH. MeCN was removed, and samples were loaded into 1cc Bond Elute DEA cartridges (Agilent). After washing with MeOH, the ABA was eluted using MeOH containing 1% AcOH. The fractions containing ABA were dried, dissolved in water containing 1% AcOH, and analysed by LC–MS/MS as described previously[35]. The LC conditions for Arabidopsis samples were as follows: solvent A, water containing 0.01% (v/v) acetic acid; solvent B, MeCN containing 0.05% (v/v) acetic acid; and linear gradient, 3 to 40% solvent B over 9 min. Experiments were performed in triplicate, and the results were averaged.
25 µ M (−)-Abz-E3M (n = 3,error bar represents s.d.).Eleven-day-old seedlings of wild-type (Col accession) […]

In the case of abscinazole-E3M [(−)-6], the “Effect on Arabidopsis seed germination under high temperature conditions” value ([1]; 30 °C, thermoinhibition, Fig. S3) was “inhibited Arabidopsis seed germination”, the “Potency in enhancing ABA's effects on seed germination relative to (−)-Abz-E2B” value ([1]; co-treatment with ABA (0.1 μM)) was 10 fold and the “Effect on ABA's inhibition of Arabidopsis seed germination” value ([1]; in the presence of 0.1 μM ABA, Fig. 3) was “enhanced the effects of ABA”. For the same substance, the “Effect on rice seedling growth, co-treatment with ABA” value (rice seedling growth; 10 μM compound + 1 μM ABA) was “inhibited rice seedling growth”, the “Effect on rice seedling growth, compound alone” value (rice seedling growth; 10 μM, no ABA) was “did not” and the “ABA-inducible GUS staining (MAPKKK18::GUS)” value [2] was “enhanced the ABA-inducible GUS staining”. The “Expression of ABA-responsive genes ZmLEA, Zm.12309.1.S and ZmCOR410” value [3] was “induced the expression of ABA-responsive genes” and the “ABA catabolism / ABA accumulation in plants” value (ABA catabolism) was “inhibited ABA catabolism and increased ABA accumulation in plants”.
